Assay results reported in patent US20250019708A1, “METHODS FOR THE TREATMENT OF HRD CANCER AND BRCA-ASSOCIATED CANCER” (INSTITUT CURIE, priority 2021, published 2025).

Experiments:
NMNAT1−/− RPE-1 cells = assay: Survival assay with PARP inhibitor; format: cell-based; conditions: versus WT RPE-1; FIG. 1g
Text: FIG. 1: a, Quantification (left) and representative images (right) of clonogenic formation of wild type (WT) and BRCA2^−/− (clones C1 and C2) RPE-1 cells with and without BRCA2 cDNA complementation, after transfection with the indicated NMNAT1 siRNAs. b, Clonogenic formation (left) and WB-analysis (right) of BRCA2 mAID HeLa cells in the presence or absence of auxin (IAA) after transduction with viral particles carrying NMNAT1 shRNA or control. c, Clonogenic formation of WT and BRCA1^−/− RPE-1 cells after transfection with siNMNAT1 #2. d, Clonogenic formation of WT and NMNAT1^−/− RPE-1 cells after transfection with the indicated BRCA1/2 siRNAs. e, Quantification (left) and representative images (right) of clonogenic formation of the indicated HR-proficient and HR-deficient cells upon siNMNAT1. f, DNA damage quantification by alkaline COMET assay of P53−/− RPE-1 cells in the presence or absence of NMNAT1. g, Survival assay of WT and NMNAT1^−/− RPE-1 cells exposed to the indicated doses of the PARP inhibitor rucaparib (PARPi).
Accumulation of DNA lesions can result in increased sensitivity to genotoxic drugs. Given that NMNAT1 functions upstream of PARP1 by providing NAD^+, the reduced PARP1 activity upon NMNAT1 loss might account for the observed synthetic lethality between NMNAT1 and BRCA.

[1] = tested on: PARPi-resistant OVCAR8 xenografts; assay: PARPi-resistant xenograft tumor growth and survival; format: in vivo, athymic nude mice; conditions: versus vehicle; FIG. 6A
Text: FIG. 6: NMNAT1 inhibition kills PARPi-resistant HRD tumors in vivo. A. Growth (relative tumor volume, RTV) of parental and PARPi-resistant OVCAR8 xenografts in vivo upon PARPi (rucaparib) or vehicle treatment. B, Growth (relative tumor volume, RTV) of PARPi-resistant OVCAR8 xenografts in vivo. C, Relative tumour volumes (RTV) for individual mice treated in B after five weeks of treatment. D, Overall survival for mice bearing PARPi-resistant OVCAR8 xenografts treated with vehicle or doxycycline. For data shown in FIG. 6, the PARPi-resistant OVCAR8 cells were xenotransplanted subcutaneously in athymic nude mice. Doxycycline was supplemented in the food (625 p.p.m.).
To translate these findings into a translational setting, the inventors derived a PARPi-resistant clone from the PARPi-naive BRCA1-deficient OVCAR8 lines, expressed either doxycycline-inducible NMNAT1 or scrambled (Scr) shRNA in these cells, and xenograft them in athymic nude mice.
As expected the OVCAR8 PARPi-resistant cells were resistant to the PARPi rucaparib in vivo (FIG. 6A).

CNCc1ccc(-c2[nH]c3cc(F)cc4c3c2CCNC4=O)cc1 [rucaparib]
sensitivity to PARP inhibitor (survival) (NMNAT1−/− RPE-1 cells): sensitized
response of tumor to PARPi in vivo [1]: resistant
